US20230103444A1 (The Regents of the University of Colorado, a Body Corporate, priority 2020, published 2023)

Assays:
cat-CHD1L ATPase = biological target: T1, cat-CHD1L ATPase (Homo sapiens, UniProt Q86WJ1); experiment: CHD1L ATPase assay with recombinant catalytic domain (cat-CHD1L); format: biochemical; settings: for inhibition at 20 µM: confirmed HTS hits, HTS at 20 μM, read-out: inhibition against cat-CHD1L ATPase; for IC50: units given with the values (nM, μM), read-out: activity in dose response studies against cat-CHD1L ATPase (IC50, FIG. 1A)
T1 construct: inferred from Ni-NTA / imidazole purification; made in house; host or cells: E. coli Rosetta 2 (DE3) pLysS; constructs were a gift from Helena Berglund, Karolinska Institute
T1 sequence (Q86WJ1 16-611 limits assumed): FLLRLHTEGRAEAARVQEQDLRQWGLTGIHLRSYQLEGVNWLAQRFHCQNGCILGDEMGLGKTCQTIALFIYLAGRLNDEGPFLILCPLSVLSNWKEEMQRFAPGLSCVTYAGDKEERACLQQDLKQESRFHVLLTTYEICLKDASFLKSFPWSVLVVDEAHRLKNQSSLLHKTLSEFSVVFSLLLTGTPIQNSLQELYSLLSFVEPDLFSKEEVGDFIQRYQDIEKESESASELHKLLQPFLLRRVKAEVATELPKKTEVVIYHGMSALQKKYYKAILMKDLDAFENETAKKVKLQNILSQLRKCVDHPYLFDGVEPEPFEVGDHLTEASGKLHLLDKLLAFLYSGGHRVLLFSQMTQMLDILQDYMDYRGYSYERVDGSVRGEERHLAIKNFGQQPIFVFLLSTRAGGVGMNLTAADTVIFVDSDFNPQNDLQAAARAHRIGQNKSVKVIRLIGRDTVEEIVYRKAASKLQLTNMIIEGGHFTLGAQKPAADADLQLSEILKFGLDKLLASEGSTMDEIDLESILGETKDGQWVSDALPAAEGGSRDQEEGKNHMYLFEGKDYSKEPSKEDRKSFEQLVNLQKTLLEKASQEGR
Summary of the method: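 Recombinant cat-CHD1L (100 nM) was incubated with 200 nM c-Myc DNA or mononucleosome in 50 mM Tris pH 7.5, 50 mM NaCl, 1 mM DTT and 5% glycerol, with 10 μM ATP, for 1 h at 37 °C. Background came from no-enzyme wells, with 1% DMSO and 10 mM EDTA as controls.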

[1] = Accumulation in SW620 xenograft tumors and liver; format: in vivo, athymic nude mice; settings: 50 mg/kg i.p. QD 5 days, n=4
Experimental: Growth was monitored with caliper measurements 3× per week. […] Treatments were administered i.p. QD over five days. Mice were sacrificed 2 h after the final dose on day five of the treatment.

[2] = tested on: VimPro-GFP SW620 xenograft tumors; experiment: Pharmacodynamic Western blot of xenograft tumor tissue; format: in vivo, athymic nude mice; settings: 50 mg/kg i.p. QD 5 days
Experimental: CRC cell lines and homogenized tumor tissue samples from mice were resuspended in RIPA lysis buffer (20 mM Tris-HCl (pH 7.5), 150 mM NaCl, 1 mM Na2EDTA, 1 mM EGTA, 1% NP-40, 1% sodium deoxycholate, 2.5 mM sodium pyrophosphate, 1 mM b-glycerophosphate, 1 mM Na3VO4, 0.1 mM PMSF. Protein concentration was determined using the Pierce™ BCA protein assay kit (ThermoFisher, Waltham, Mass.). Forty micrograms of sample were run on 10% Bis-Tris gels. Following electrophoresis, the proteins were transferred to a nitrocellulose membrane. The membranes were blocked at room temperature with 5% non-fat milk in TBS/Tween® 20 (TBST contains 20 mM Tris, 150 mM NaCl, and 0.1% Tween®20 (Croda International PLC, Snaith, UK) for 1 hour at room temperature. Membranes were washed three times with TBST. Blots were incubated with the appropriate primary antibody in 5% nonfat milk in TBST overnight at 4° C. Membranes were washed three times with TBST and then incubated with appropriate secondary antibody for one hour. Membranes were washed again with TBST three times. […]
Two million VimPro-GFP SW620 cells suspended in 100 μL of a 1:1 mixture of Matrigel® matrix (Corning Life Sciences, Corning, N.Y.) and RPMI 1640 were injected into the flanks of 9-week old female athymic nude mice (Nude-Foxn1nu (069)) (Envigo, Huntingdon, Cambridgeshire, UK). Growth was monitored with caliper measurements 3× per week. […]

Experimental for SW620 tumor xenografts: In vivo studies. […] Body weight and tumor volumes were monitored 2×/week. […] In addition, irinotecan was administered i.p. at 50 mg/kg.

Compound	inhibition at 20 µM (cat-CHD1L ATPase)	IC50 (cat-CHD1L ATPase)	concentration accumulated in SW620 tumors [1]	epithelial marker ZO-1 and cleaved caspase 3 in tumor tissue [2]	mesenchymal markers vimentin, vimentin reporter (VimPro-GFP) and slug in tumor tissue [2]	tumor volume, combination with irinotecan (SW620 tumor xenografts; compound 6 5 mg/kg i.p. 2×/day + irinotecan 60 mg/kg i.p. 1×/week, 28 days, vs single agents or control)	tumor volume after the last treatment, combination with irinotecan (SW620 tumor xenografts; compound 6 + irinotecan vs irinotecan alone, last treatment day 28)	survival of tumor-bearing mice, combination with irinotecan (SW620 tumor xenografts; compound 6 + irinotecan, compared to vehicle and single agents)	survival of tumor-bearing mice, compound alone (SW620 tumor xenografts; compound 6 alone, compared to vehicle)
Cc1cc(Nc2ccc(NC(=O)Cc3cccs3)cc2)nc(N2CCCC2)n1 [Compound 6, N-(4-((6-methyl-2-(pyrrolidin-1-yl)pyrimidin-4-yl)amino)phenyl)-2-(thiophen-2-yl)acetamide]	> 50%	900 to 5000 nM	10,533±5,579 ng/mL	not statistically significant, upregulation of the epithelial marker ZO-1 and induction of cleaved caspase 3	significant downregulation	significantly inhibit colon SW620 tumor xenografts to almost no tumor volume	significantly inhibits colon SW620 tumors to almost no tumor volume beyond the last treatment	significantly increases the survival	significantly increases the survival
COc1ccc(-c2nc(S(=O)(=O)c3ccccc3)c(S(C)(=O)=O)o2)cc1 [Compound 5]	> 50%	900 to 5000 nM	–	–	–	–	–	–	–
